Measurements from patent publication US20160031937A1, “NEURAL REGENERATION PEPTIDES AND USES THEREFOR” (CURONZ HOLDINGS COMPANY LIMITED, priority 2013, published 2016).
Read-outs that look alike come from different tables or passages of the source. Square brackets hold non-standard residues; d marks the D form. Ends that are not written are not given here. Aib = CC(C)(N)C(=O)O

Tests used:
Type in all cases: cell-based
[1] = test system: endogenous NRP gene expression; experiment: Endogenous NRP gene expression in human embryonic W9 stem cells; details: 100 fM NRP2945
human W9-hESCs [2] = experiment: H2O2 induced oxidative stress injury, LDH detected cell death; details: for cell death reduced by (LDH): 50 μM H2O2, first 4 hours, corrected for basal injury; for reduced LDH release, net effect at 24 hours: H2O2 injury; for reduction of LDH detected cell death: between removal of H2O2 at 4 hours and 24 hours; for reduction of LDH release, net effect at 24 hours: H2O2
Description: (§1) Experiments with human embryonic stem cells (hESC) were carried out in accordance with the guidelines and regulations of the NHMRC and with the approval of the Austin Health Human Research Ethics Committee (Approval number H2008/03194), and University of Melbourne Human Research Ethics Committee (Approval number 0605017). H9 (WA-09, WiCell) cell lines were grown as previously described (Dottori & Pera, 2007).
(§2) Briefly, hESC were cultured on mitomycin-C treated mouse embryonic fibroblasts (MEFs) in hESC medium consisting of high-glucose Dulbecco's Modified Eagle Medium (DMEM) without sodium pyruvate, supplemented with 1% insulin/transferrin/selenium, 0.1 mM β-mercaptoethanol, 1% nonessential amino acids (NEAA), 2 mM glutamine, 25 U/ml penicillin, 25 μg/ml streptomycin (all from Invitrogen) and 20% fetal calf serum (FCS) (Hyclone).
(§3) Alternatively, hESC were cultured on mitomycin-C treated human foreskin fibroblasts (HFF; ATCC, CRL-2097) in KSR media consisting of DMEM/nutrient mixture F-12, supplemented with 0.1 mM […], 1% nonessential amino acids (NEAA), 2 mM glutamine, 25 U/ml penicillin, 25 μg/ml streptomycin and 20% knockout serum replacement (all from Invitrogen).
(§4) All cells were cultured at 37° C. in 5% CO2 with 100% humidity. Colonies were mechanically dissected every 7 days (subcultivated or passaged) and transferred to freshly prepared MEFs or HFFs. Media was changed every second day.
(§5) Neuronal differentiation was achieved using the noggin induction method described for mouse neurospheres as adapted by Dottori for human neurospheres (Dottori & Pera, 2007). The colonies were maintained at 37° C., with 5% CO2 in hESC medium supplemented with 500 ng/ml of Noggin for 14 days while replacing Noggin every other day.
(§6) At this point, the cells were washed with PBS and the colonies were again mechanically dissociated, but this time the central (differentiated) part of the colony was also cut into smaller pieces using a 26-gauge needle. The pieces were transferred to individual wells in a low adherent 96-well plate containing Neurobasal®A (NBM) (Invitrogen) supplemented with 1× X B-27® (Invitrogen) and 1× N-2 (Invitrogen) 20 ng/ml human recombinant EGF and 20 ng/ml human recombinant bFGF (Pharmacia). Media was changed every 2 to 3 days to allow neurosphere formation over 2 weeks.
(§7) In order to facilitate neuronal differentiation, neurospheres were again separated into smaller pieces under a dissection microscope, and three to four pieces were transferred to each well of a 96-well plate. Prior to this transfer, the plate was pre-coated with poly-D-lysine (10 μg/ml in PBS), washed in PBS, recoated with mouse laminin (5 μg/ml in PBS), and washed again. The cells were then grown for 11 days (with media changed every two days) in NBM lacking growth factors prior to induction of injury and assessment of hypothermia.
(§8) On the day of experiments, the medium was changed to NBM+N2 containing a B27 preparation lacking the usual antioxidants (Invitrogen; 10889-038) to eliminate their confounding effects (NBM-AO).
The media was replaced with fresh NBM-AO and the cells were incubated for a further 20 hours containing drug, before again measuring LDH. Oxidative stress was induced by adding 50 μM fresh H2O2 (Sigma, H1009) to the growth factor negative NBM on initiation of the experiment with continued culture for 4 hours when LDH was measured and NBM-AO without H2O2 was returned to the culture which was maintained for a further 20 hours before again measuring LDH. […]
Measurement of lactate dehydrogenase activity (a marker of total cell death) and TUNEL staining (a marker of apoptotic death) was performed according to the kit manufacturer's instructions (Roche, 1164479001 and 11684795910 respectively).
Within experiments, each comparison was performed at least in triplicate and the mean of these values taken forward into group comparisons. […]

human W9-hESCs [3] = details: for reduction in LDH detected cell death: first 4 hours; for decrease of delayed injury (LDH): between removal of OGD at 4 hours and 24 hours
Description: as §1, §2, §3, §4, §5, §6, §7, §8
To maintain isoosmotic pressure conditions, 25 mM 2-deoxy-D-glucose was added to NBM-AO medium and equilibrated for 30 minutes at room temperature before the initial media change as described above. […] Culture supernatant was removed after this 4 hour period and stored at 4° C. until analysed for lactate dehydrogenase (LDH) activity.
The media was replaced with fresh NBM-AO and the cells were incubated for a further 20 hours containing drug, before again measuring LDH. Oxidative stress was induced by adding 50 μM fresh H2O2 (Sigma, H1009) to the growth factor negative NBM on initiation of the experiment with continued culture for 4 hours when LDH was measured and NBM-AO without H2O2 was returned to the culture which was maintained for a further 20 hours before again measuring LDH.

## Gly Arg Arg Ala Ala Pro Gly Arg Aib Gly Gly (GRRAAPGR[Aib]GG) [NRP2945, synthetic 11-mer peptidomimetic optimized for stability and pharmacokinetics]
[1]
  time to stimulated endogenous NRP gene expression after administration: 5 to 10 min
Human W9-hESCs [2]; 1 pM NRP2945 at injury induction
  cell death reduced by (LDH): 35%
Human W9-hESCs [2]; 1 fM NRP2945 at injury induction
  cell death reduced by (LDH): 23.2%
Human W9-hESCs [2]; 10 fM NRP2945 at injury induction
  cell death reduced by (LDH): 40%
Human W9-hESCs [2]; 100 fM NRP2945 at injury induction
  cell death reduced by (LDH): 44%
Human W9-hESCs [2]; 1 pM NRP2945
  reduced LDH release, net effect at 24 hours: 26%
Human W9-hESCs [2]; 1 fM NRP2945
  reduced LDH release, net effect at 24 hours: 27%
Human W9-hESCs [2]; 10 fM NRP2945
  reduced LDH release, net effect at 24 hours: 48%
  reduction of LDH detected cell death: 70%
Human W9-hESCs [2]; 100 fM NRP2945
  reduced LDH release, net effect at 24 hours: 47%
  reduction of LDH detected cell death: 57%
Human W9-hESCs [2]; repeat experiment, 10 fM NRP2945 added at 0 hours
  reduction of LDH release, net effect at 24 hours: 48%
Human W9-hESCs [2]; repeat experiment, 10 fM NRP2945 added at 1 hour
  reduction of LDH release, net effect at 24 hours: 35%
Human W9-hESCs [2]; repeat experiment, 10 fM NRP2945 added at 3 hours (p≦0.124)
  reduction of LDH release, net effect at 24 hours: 23%
Human W9-hESCs [2]; repeat experiment, 100 fM NRP2945 added at 0 hours
  reduction of LDH release, net effect at 24 hours: 41%
Human W9-hESCs [2]; repeat experiment, 100 fM NRP2945 added at 1 hour
  reduction of LDH release, net effect at 24 hours: 39%
Human W9-hESCs [2]; repeat experiment, 100 fM NRP2945 added at 3 hours
  reduction of LDH release, net effect at 24 hours: 27%
Human W9-hESCs [2]; repeat experiment, first 4 hours of H2O2 injury, 10 fM NRP2945 added at 0 hours
  reduction in cell death (LDH): 40%
Human W9-hESCs [2]; repeat experiment, first 4 hours of H2O2 injury, 10 fM NRP2945 administered one hour after injury induction
  reduction in cell death (LDH): 35%
Human W9-hESCs [2]; repeat experiment, first 4 hours of H2O2 injury, 100 fM NRP2945 added at 0 hours
  reduction in cell death (LDH): 37%
Human W9-hESCs [2]; repeat experiment, first 4 hours of H2O2 injury, 100 fM NRP2945 administered one hour after injury induction
  reduction in cell death (LDH): 33%
Human W9-hESCs [2]; repeat experiment, first 4 hours of H2O2 injury, NRP2945 added 3 hours after injury induction (1 hour exposure)
  effect on cell death (LDH): no significant beneficial effect
Human W9-hESCs [3]; 100 fM NRP2945
  neuroprotective effects during OGD: did not show neuroprotective effects
Human W9-hESCs [3]; 4 hours of OGD injury, 100 pM NRP2945 plus 300 nM AMD3100
  decrease in LDH detected cell death in presence of CXCR4 inhibitor: abolished
Human W9-hESCs [3]; AMD3100 experiment, 4 hours of OGD injury, 100 pM NRP2945 without inhibitor
  decrease in LDH detected cell death: 44%
Human W9-hESCs [3]; AMD3100 experiment, OGD, 100 pM NRP2945 without inhibitor
  reduction of LDH release, net effect at 24 hours: 55%
Human W9-hESCs [3]; OGD, 1 pM NRP2945 at injury induction
  reduction in LDH detected cell death: 23%
Human W9-hESCs [3]; OGD, 10 pM NRP2945 at injury induction
  reduction in LDH detected cell death: 37%
Human W9-hESCs [3]; OGD, 100 pM NRP2945 at injury induction
  reduction in LDH detected cell death: 43%
Human W9-hESCs [3]; OGD, 1 pM NRP2945
  reduction of LDH release, net effect at 24 hours: 28%
Human W9-hESCs [3]; OGD, 10 pM NRP2945
  reduction of LDH release, net effect at 24 hours: 44%
Human W9-hESCs [3]; OGD, 100 pM NRP2945
  reduction of LDH release, net effect at 24 hours: 52%
Human W9-hESCs [3]; OGD, 100 pM NRP2945 plus 300 nM AMD3100
  reduction of LDH release, net effect at 24 hours, in presence of CXCR4 inhibitor: blocked
Human W9-hESCs [3]; OGD, 100 fM NRP2945
  reduction of LDH release, net effect at 24 hours: 17%
Human W9-hESCs [3]; 10 pM NRP2945
  decrease of delayed injury (LDH): 67%
Human W9-hESCs [3]; 100 pM NRP2945
  decrease of delayed injury (LDH): 79%
Human W9-hESCs [3]; repeat experiment, OGD, 10 pM NRP2945 during injury induction
  reduction in LDH detected cell death: 41%
Human W9-hESCs [3]; repeat experiment, OGD, 10 pM NRP2945 one hour after injury induction
  reduction in LDH detected cell death: 31%
Human W9-hESCs [3]; repeat experiment, OGD, 100 pM NRP2945 during injury induction
  reduction in LDH detected cell death: 47%
Human W9-hESCs [3]; repeat experiment, OGD, 100 pM NRP2945 one hour after injury induction
  reduction in LDH detected cell death: 34%
Human W9-hESCs [3]; repeat experiment, OGD, 10 pM NRP2945 added at 0 hours
  reduction of LDH release, net effect at 24 hours: 48%
Human W9-hESCs [3]; repeat experiment, OGD, 10 pM NRP2945 added at 1 hour
  reduction of LDH release, net effect at 24 hours: 36%
Human W9-hESCs [3]; repeat experiment, OGD, 10 pM NRP2945 added at 3 hours
  reduction of LDH release, net effect at 24 hours: 22%
Human W9-hESCs [3]; repeat experiment, OGD, 100 pM NRP2945 added at 0 hours
  reduction of LDH release, net effect at 24 hours: 54%
Human W9-hESCs [3]; repeat experiment, OGD, 100 pM NRP2945 added at 1 hour
  reduction of LDH release, net effect at 24 hours: 35%
Human W9-hESCs [3]; repeat experiment, OGD, 100 pM NRP2945 added at 3 hours
  reduction of LDH release, net effect at 24 hours: 22%
